{"source": "paper PMC12374823", "about": "“A Small Molecule Selectively Targets N-Myc to Suppress Neuroblastoma Cancer Progression” (International Journal of Biological Sciences, 2025)", "key": {"[1]": {"target": "T1, c-Myc (Homo sapiens, UniProt P01106)", "T1 construct": "c-Myc^1-439", "T1 sequence (P01106 16-454)": "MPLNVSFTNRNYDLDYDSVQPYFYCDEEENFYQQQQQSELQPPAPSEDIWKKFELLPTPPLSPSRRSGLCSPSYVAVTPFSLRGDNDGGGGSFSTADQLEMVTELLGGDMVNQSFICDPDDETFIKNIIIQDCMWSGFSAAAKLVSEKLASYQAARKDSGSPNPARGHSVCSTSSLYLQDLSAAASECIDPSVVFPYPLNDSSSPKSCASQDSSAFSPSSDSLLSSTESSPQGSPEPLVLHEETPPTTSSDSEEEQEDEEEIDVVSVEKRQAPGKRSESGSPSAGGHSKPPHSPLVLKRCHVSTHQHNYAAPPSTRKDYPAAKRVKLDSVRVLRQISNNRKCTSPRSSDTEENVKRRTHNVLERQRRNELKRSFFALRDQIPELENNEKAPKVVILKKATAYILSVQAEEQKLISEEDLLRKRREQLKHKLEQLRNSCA", "experiment": "microscale thermophoresis (MST) with labeled recombinant c-Myc", "format": "binding"}, "[2]": {"target": "T2, N-Myc (Homo sapiens, UniProt P04198)", "T2 construct": "gene MYCN; N-Myc^1-464", "T2 sequence (P04198 1-464)": "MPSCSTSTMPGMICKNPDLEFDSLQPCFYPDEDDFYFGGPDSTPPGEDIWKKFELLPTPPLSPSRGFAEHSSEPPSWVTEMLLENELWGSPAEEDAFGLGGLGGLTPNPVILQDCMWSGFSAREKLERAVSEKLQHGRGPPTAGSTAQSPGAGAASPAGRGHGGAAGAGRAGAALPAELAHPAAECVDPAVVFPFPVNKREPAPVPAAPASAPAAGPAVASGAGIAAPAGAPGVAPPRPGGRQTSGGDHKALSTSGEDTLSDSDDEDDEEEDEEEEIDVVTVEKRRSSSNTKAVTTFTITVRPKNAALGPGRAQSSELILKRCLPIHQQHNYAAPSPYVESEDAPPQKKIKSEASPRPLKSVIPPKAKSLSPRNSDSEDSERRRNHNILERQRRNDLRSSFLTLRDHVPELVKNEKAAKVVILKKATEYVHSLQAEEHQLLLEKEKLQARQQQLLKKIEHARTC", "experiment": "microscale thermophoresis (MST) with labeled purified N-Myc; supported by CETSA in cells", "format": "binding"}}, "data": [{"smiles": "COc1ccc(-n2nc3ccc(NC(=O)CBr)cc3n2)cc1", "note": "[N78]", "values": [{"measurement": "Kd", "setting": "[1]", "result": "8.48 ± 2.61", "unit": "µM"}, {"measurement": "Kd", "setting": "[2]", "result": "1.47 ± 0.52", "unit": "µM"}]}]}
